Laboratory results as given in patent publication US11447445B2, “Diabetes and metabolic syndrome treatment with a novel dual modulator of soluble epoxide hydrolase and peroxisome proliferator-activated receptors” (priority 2015, dated 2022).
Converted amounts (≈) assume the structure as drawn. Read-outs that look alike come from different tables or passages of the source.

Key:
PPARδ = biological target: T1, PPARδ (Homo sapiens, UniProt Q03181); test: PPAR transactivation assay in COS-7 cells (Gal4-hPPAR-LBD, luciferase); format: cell-based
T1 construct: expressed in transfected cells; host or cells: COS-7
T1 sequence (Q03181 211-439): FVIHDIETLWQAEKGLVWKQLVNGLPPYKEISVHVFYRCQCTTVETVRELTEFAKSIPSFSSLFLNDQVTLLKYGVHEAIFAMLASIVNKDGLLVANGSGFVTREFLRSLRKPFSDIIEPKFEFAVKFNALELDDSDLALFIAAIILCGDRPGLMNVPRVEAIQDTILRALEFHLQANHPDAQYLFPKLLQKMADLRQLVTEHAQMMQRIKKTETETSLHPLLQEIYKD
Procedure: (§1) COS-7 cells (PPAR) were grown in DMEM high glucose, supplemented with 10% fetal calf serum (FCS), 1% sodium pyruvate (SP) and 1% penicillin/streptomycin (PS) at 37° C. and 5% CO2. Used plasmids for PPAR transactivation assay are shown under supporting informations.
(§2) The day before transfection, COS-7 cells were seeded in 96-well plates with a density of 30,000 cells per well. Transient transfection was carried out using Lipofectamine LTX reagent (Invitrogen, Carlsbad, Calif., USA) according to the manufacturer's protocol with pFR-Luc (Stratagene), pRL-SV40 (Promega) and the Ga14-fusion receptor plasmids (pFA-CMV-hPPAR-LBD) of the respective PPAR subtype. 5 h after transfection, medium was changed to DMEM without phenol red and 10% FCS, supplemented with 1% SP, 1% PS and 1% L-glutamine, now additionally containing 0.1% DMSO and the respective test compound or 0.1% DMSO alone as untreated control. Each concentration was tested in triplicate wells and each experiment was repeated independently at least three times. Following overnight incubation with the test compounds, cells were assayed for luciferase activity using Dual-Glo™ Luciferase Assay System (Promega) according to the manufacturer's protocol. Luminescence was measured with an Infinite m200 luminometer (Tecan Deutschland GmbH). Each concentration of the compounds was tested in triplicate wells. Normalization for transfection efficacy and cell growth was done by division of the firefly luciferase data by renilla luciferase data resulting in relative light units. Activation factors were obtained by dividing by DMSO control. […] All compounds were evaluated by comparison of the achieved maximum effect to that of the reference compound (pioglitazone for PPARγ, GW7647 for PPARa, and L165041 for PPARS each with 1 μM). Data are expressed as mean±SE; n≥3.
(§3) The Gal4-fusion receptor plasmids pFA-CMV-PPARa-LBD, pFA-CMV-PPARS-LBD and pFA-CMV-PPARγ-LBD containing the hinge region and ligand binding domain (LBD) for each of the PPAR subtypes, respectively, were constructed by integrating cDNA fragments obtained from PCR amplification of human monocytes into the SmaI/XbaI cleavage site of the pFA-CMV vector (Stratagene, La Jolla, Calif., USA) and have already been published. […] Frame and sequence of the fusion receptors were verified by sequencing. pFR-Luc (Stratagene) was used as reporter plasmid and pRL-SV40 (Promega) for normalization of transfection efficacy and cell growth.

recombinant human sEH = biological target: T2, recombinant human sEH (Homo sapiens, UniProt P34913); test: biochemical
T2 sequence (P34913 1-555): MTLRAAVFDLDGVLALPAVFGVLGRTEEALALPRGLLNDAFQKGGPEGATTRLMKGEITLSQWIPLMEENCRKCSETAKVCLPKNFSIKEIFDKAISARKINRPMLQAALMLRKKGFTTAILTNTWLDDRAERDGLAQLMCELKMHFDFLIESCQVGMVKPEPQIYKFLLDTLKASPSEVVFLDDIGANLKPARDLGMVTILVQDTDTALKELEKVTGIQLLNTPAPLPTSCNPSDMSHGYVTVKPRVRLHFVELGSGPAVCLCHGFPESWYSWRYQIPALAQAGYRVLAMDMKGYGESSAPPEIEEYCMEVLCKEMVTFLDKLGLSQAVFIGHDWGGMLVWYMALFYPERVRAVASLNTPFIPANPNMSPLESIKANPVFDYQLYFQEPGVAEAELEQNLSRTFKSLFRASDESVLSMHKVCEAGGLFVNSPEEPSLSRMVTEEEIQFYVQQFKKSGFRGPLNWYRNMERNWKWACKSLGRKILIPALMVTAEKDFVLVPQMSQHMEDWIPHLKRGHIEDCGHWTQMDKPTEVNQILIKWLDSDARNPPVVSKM

PPARα = biological target: T3, PPARα (Homo sapiens, UniProt Q07869); format: cell-based; settings: for PPARα activation @10 μM: at 10 μM, compared to GW7647 1 μM
T3 construct: expressed in transfected cells; host or cells: COS-7
T3 sequence (Q07869 239-466): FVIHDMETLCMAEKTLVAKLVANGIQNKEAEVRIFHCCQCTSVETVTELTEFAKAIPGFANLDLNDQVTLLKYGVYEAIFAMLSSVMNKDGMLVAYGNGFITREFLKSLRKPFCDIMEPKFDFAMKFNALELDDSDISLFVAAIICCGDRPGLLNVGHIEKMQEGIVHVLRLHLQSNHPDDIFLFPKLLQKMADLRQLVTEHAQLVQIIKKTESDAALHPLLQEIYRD
Procedure: as §1, §2, §3

[1] = Water solubility approximation; format: physicochemical; settings: PBS with 0.01% Polysorbate 20, aqueous with cosolvent or surfactant or cyclodextrin, kinetic from dmso stock; PBS pH 7.4, 0.01% Polysorbate 20, 1% DMSO; precipitation at 650 nm; read-out: w.s. (water solubility)
Procedure: PBS at pH 7.4 with 0.01% Polysorbate 20 (Tween) was combined with 1% of a DMSO solution of the inquired compound in a 96-well transparent flat bottom microtiter plate. Precipitation of the compound was measured at 650 nm with a Tecan Infinite 200 (Tecan Group Ltd, Mannedorf, Switzerland).

[2] = at 10 μM, read-out: sEH inhibition @10 μM (converted)

Compound | EC50 PPARδ (PPARδ; i.a. = inactive) | IC50 (recombinant human sEH; read-out: IC50 sEH (converted)) [nM] | EC50 PPARα (PPARα; i.a. = inactive) | solubility [1] [µM] | further results
CCOC(=O)/C(=C/c1ccc(C(=O)NCc2ccccc2C(F)(F)F)cc1)CC [Compound 1a] | i.a. | 63 ± 3 | i.a. | – | –
CC/C(=C\c1ccc(C(=O)NCc2ccccc2C(F)(F)F)cc1)C(=O)O [Compound 1d, (E)-4-[N-((2-Trifluoromethyl)benzyl)benzamide]-alpha-ethylcinnamic acid] | i.a. | 120 ± 10 | i.a. | – | –
CCC(Cc1ccc(C(=O)NCc2ccccc2)cc1)C(=O)O (stereo not shown) [Compound 2c, 2-Ethyl 3-[4-(N-benzylbenzamide)]propionic acid] | – | – | – | – | EC50 PPARδ (PPARδ): n.t. i.a. i.a. n.t.; inhibition at 10 µM (recombinant human sEH; read-out: sEH inhibition @10 μM): 4%; EC50 PPARα (PPARα): n.t. i.a. i.a. n.t.
CCC(Cc1ccc(C(=O)NCc2ccccc2C)cc1)C(=O)O (stereo not shown) [Compound 3c, 2-Ethyl 3-[4-(N-((2-methyl)benzyl)benzamide)]propionic acid] | n.t. i.a. i.a. n.t. | – | i.a. | – | inhibition at 10 µM (recombinant human sEH; [2]): 25%
CCC(Cc1ccc(C(=O)NCc2ccccc2Cl)cc1)C(=O)O (stereo not shown) [Compound 4c, 2-Ethyl 3-[4-(N-((2-chloro)benzyl)benzamide)]propionic acid] | n.t. i.a. i.a. n.t. | – | n.t. i.a. i.a. n.t. | – | inhibition at 10 µM (recombinant human sEH; [2]): 20%
CCOC(=O)/C(=C/c1ccc(C(=O)NCc2ccccc2OC(F)(F)F)cc1)CC [Compound 6a, Ethyl (E)-4-[N-((2-trifluoromethoxy)benzyl)benzamide]-alpha-ethylcinnamate] | – | 60 ± 13 | – | 10 (≈ 4.21 µg/mL) | –
CCC(Cc1ccc(C(=O)NCc2ccc(F)cc2)cc1)C(=O)O (stereo not shown) [Compound 7c, 2-Ethyl 3-[4-(N-((4-fluoro)benzyl)benzamide)]propionic acid] | n.t. i.a. i.a. n.t. | – | n.t. i.a. i.a. n.t. | – | inhibition at 10 µM (recombinant human sEH; [2]): 28%
CC/C(=C\c1ccc(C(=O)NCc2ccc(C(F)(F)F)cc2)cc1)C(=O)O [Compound 8d, (E)-4-[N-((4-Trifluoromethyl)benzyl)benzamide]-alpha-ethylcinnamic acid] | – | 2800 | – | 500 (≈ 189 µg/mL) | –
CCOC(=O)/C(=C/c1ccc(C(=O)NCc2ccc(OC)cc2)cc1)CC [Compound 10a, Ethyl (E)-4-[N-((4-methoxy)benzyl)benzamide]-alpha-ethylcinnamate] | – | – | – | 10 (≈ 3.67 µg/mL) | IC50 (recombinant human sEH): 550 nM
CCOC(=O)/C(=C/c1ccc(C(=O)NCc2ccc(Cl)cc2)cc1)CC [Compound 11a, Ethyl (E)-4-[N-((4-chloro)benzyl)benzamide]-alpha-ethylcinnamate] | – | 3000 ± 1400 | – | 10 (≈ 3.72 µg/mL) | –
CC/C(=C\c1ccc(C(=O)NCc2ccc(Cl)cc2)cc1)C(=O)O [Compound 11d, (E)-4-[N-((4-Chloro)benzyl)benzamide]-alpha-ethylcinnamic acid] | – | 5000 | – | 100 (≈ 34.4 µg/mL) | –
CCOC(=O)C(CC)Cc1ccc(C(=O)NCc2ccc(F)cc2C(F)(F)F)cc1 (stereo not shown) [Compound 13b, Ethyl 2-ethyl 3-[4-(N-(4-fluoro(2-trifluoromethyl)benzyl)benzamide)]propanoate] | n.t. i.a. i.a. n.t. | – | n.t. i.a. i.a. n.t. | – | –
CCC(Cc1ccc(C(=O)NCc2ccc(F)cc2C(F)(F)F)cc1)C(=O)O (stereo not shown) [Compound 13c, 2-Ethyl 3-[4-(N-(4-fluoro(2-trifluoromethyl)benzyl)benzamide)]propionic acid] | n.t. i.a. i.a. n.t. | – | n.t. i.a. i.a. n.t. | – | –
CCOC(=O)C(CC)Cc1ccc(C(=O)NCc2ccc(OC)cc2C(F)(F)F)cc1 (stereo not shown) [Compound 14b, Ethyl 2-ethyl 3-[4-(N-(4-methoxy(2-trifluoromethyl)benzyl)benzamide)]propanoate] | n.t. i.a. i.a. n.t. | – | – | – | PPARα activation @10 μM (PPARα): 22%
CCOC(=O)C(CC)Cc1cccc(C(=O)NCc2ccccc2C(F)(F)F)c1 (stereo not shown) [Compound 15b, Ethyl 2-ethyl 3-[3-(N-((2-trifluoromethyl)benzyl)benzamide)]propanoate] | i.a. | 27 ± 2 | i.a. | – | –
CCC(Cc1cccc(C(=O)NCc2ccccc2C(F)(F)F)c1)C(=O)O (stereo not shown) [Compound 15c, 2-Ethyl 3-[3-(N-((2-trifluoromethyl)benzyl)benzamide)]propionic acid] | i.a. | 900 ± 80 | – | – | PPARα activation @10 μM (PPARα): @10 μM (34%)
CCOC(=O)/C(C)=C/c1ccc(C(=O)NCc2ccccc2C(F)(F)F)cc1 [Compound 17a, Ethyl (E)-4-[N-((2-trifluoromethyl)benzyl)benzamide]-alpha-methylcinnamate] | – | 100 ± 30 | – | 10 (≈ 3.91 µg/mL) | –
C/C(=C\c1ccc(C(=O)NCc2ccccc2C(F)(F)F)cc1)C(=O)O [Compound 17d, (E)-4-[N-((2-Trifluoromethyl)benzyl)benzamide]-alpha-methylcinnamic acid] | – | 4900 ± 60 | – | 500 (≈ 182 µg/mL) | –
CCC/C(=C\c1ccc(C(=O)NCc2ccccc2C(F)(F)F)cc1)C(=O)OCC [Compound 18a, Ethyl (E)-4-[N-((2-trifluoromethyl)benzyl)benzamide]-alpha-propylcinnamate] | – | 160 ± 60 | – | 10 (≈ 4.19 µg/mL) | –
CCC/C(=C\c1ccc(C(=O)NCc2ccccc2C(F)(F)F)cc1)C(=O)O [Compound 18d, (E)-4-[N-((2-Trifluoromethyl)benzyl)benzamide]-alpha-propylcinnamic acid] | – | 700 ± 60 | – | 5 (≈ 1.96 µg/mL) | –
CCOC(=O)/C(=C/c1ccc(C(=O)NCc2ccccc2C(F)(F)F)cc1)c1ccccc1 [Compound 19a, Ethyl (E)-4-[N-((2-trifluoromethyl)benzyl)benzamide]-alpha-phenylcinnamate] | – | 160 ± 30 | – | 1 (≈ 0.453 µg/mL) | –
O=C(O)/C(=C/c1ccc(C(=O)NCc2ccccc2C(F)(F)F)cc1)c1ccccc1 [Compound 19d, (E)-4-[N-((2-Trifluoromethyl)benzyl)benzamide]-alpha-phenylcinnamic acid] | – | 800 ± 10 | – | 50 (≈ 21.3 µg/mL) | –
O=C(NCc1ccccc1C(F)(F)F)c1ccc(C2CC2C(=O)O)cc1 (stereo not shown) [Compound 22, 2-[4-(N-((2-trifluoromethyl)benzyl)benzamide)]cyclopropan carboxylic acid] | i.a. | 5500 ± 200 | i.a. | – | –
